Values of other authors as cited in US10308909B2, “Dried spore germinative compound mixtures” (Envera, LLC, priority 2013, dated 2019).

Columns and labels:
bacterial spores = conditions: concentrations as low as

For `C[C@@H](N)C(=O)O` [D-alanine], which “inhibition of Bacillus germination” value (Bacillus) is on record?
The value was “powerful inhibitor of Bacillus germination”.

Which “concentration that inhibits germination” value (bacterial spores) does the source give for `Oc1ccccc1` [phenol] here?
Its value is 0.2 % (wt./vol).

For cresol, which “concentration that inhibits germination” value (bacterial spores) is on record?
Its value is 0.08 % (wt./vol).
